Test results as given in patent US20260262643A1, “HERBICIDAL BENZOXAZINES” (FMC CORPORATION, priority 2022, published 2026).

Legend:
barnyardgrass [1] = test: Test C preemergence; type: in vivo, Echinochloa crusgalli; details: 0 to 100 scale (0 no effect, 100 complete control); for Barnyardgrass plant response rating: preemergence
In short: (§1)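 Soil-applied (pre) and foliar (post, 1–2 leaf, 2–10 cm) sprays; surfactant-containing non-phytotoxic solvent vehicle; loam/sand substrate. Readout: visual % control at 10 d, greenhouse, versus untreated.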

blackgrass [2] = test: Test C preemergence; type: in vivo, Alopecurus myosuroides; details: 0 to 100 scale (0 no effect, 100 complete control); for Blackgrass plant response rating: preemergence
In short: as §1

corn [3] = test: Test C preemergence; type: in vivo, Zea mays; details: 0 to 100 scale (0 no effect, 100 complete control); for Corn plant response rating: preemergence
In short: as §1

green foxtail [4] = test: Test C preemergence; type: in vivo, Setaria viridis; details: 0 to 100 scale (0 no effect, 100 complete control); for Foxtail, Green plant response rating: preemergence
In short: as §1

kochia [5] = test: Test C preemergence; type: in vivo, Bassia scoparia; details: 0 to 100 scale (0 no effect, 100 complete control); for Kochia plant response rating: preemergence
In short: as §1

oat, wild [6] = test: Test C preemergence; type: in vivo, Avena fatua; details: 0 to 100 scale (0 no effect, 100 complete control); for Oat, Wild plant response rating: preemergence
In short: as §1

pigweed, palmer [7] = test: Test C preemergence; type: in vivo, Amaranthus palmeri; details: 0 to 100 scale (0 no effect, 100 complete control); for Pigweed, Palmer plant response rating: preemergence
In short: as §1

ragweed [8] = test: Test C preemergence; type: in vivo, Ambrosia artemisiifolia; details: 0 to 100 scale (0 no effect, 100 complete control); for Ragweed plant response rating: preemergence
In short: as §1

ryegrass, Italian [9] = test: Test C preemergence; type: in vivo, Lolium multiflorum; details: 0 to 100 scale (0 no effect, 100 complete control); for Ryegrass, Italian plant response rating: preemergence
In short: as §1

soybean [10] = test: Test C preemergence; type: in vivo, Glycine max; details: 0 to 100 scale (0 no effect, 100 complete control); for Soybean plant response rating: preemergence
In short: as §1

wheat [11] = test: Test C preemergence; type: in vivo, Triticum aestivum; details: 0 to 100 scale (0 no effect, 100 complete control); for Wheat plant response rating: preemergence
In short: as §1

barnyardgrass [12] = test: Test C postemergence; type: in vivo, Echinochloa crusgalli; details: 10 days
In short: as §1

blackgrass [13] = test: Test C postemergence; type: in vivo, Alopecurus myosuroides; details: 10 days
In short: as §1

corn [14] = test: Test C postemergence; type: in vivo, Zea mays; details: 10 days
In short: as §1

green foxtail [15] = test: Test C postemergence; type: in vivo, Setaria viridis; details: 10 days
In short: as §1

kochia [16] = test: Test C postemergence; type: in vivo, Bassia scoparia; details: 10 days
In short: as §1

oat, wild [17] = test: Test C postemergence; type: in vivo, Avena fatua; details: 10 days
In short: as §1

pigweed, palmer [18] = test: Test C postemergence; type: in vivo, Amaranthus palmeri; details: 10 days
In short: as §1

ragweed [19] = test: Test C postemergence; type: in vivo, Ambrosia artemisiifolia; details: 10 days
In short: as §1

ryegrass, Italian [20] = test: Test C postemergence; type: in vivo, Lolium multiflorum; details: 10 days
In short: as §1

soybean [21] = test: Test C postemergence; type: in vivo, Glycine max; details: 10 days
In short: as §1

wheat [22] = test: Test C postemergence; type: in vivo, Triticum aestivum; details: 10 days
In short: as §1

galium = test: Test C postemergence; type: in vivo, Galium aparine; details: 10 days
In short: as §1

horseweed = test: Test C postemergence; type: in vivo, Erigeron canadensis; details: 10 days
In short: as §1

barnyardgrass [23] = test: Test D flooded paddy test; type: in vivo, Echinochloa crus-galli; details: 250 g ai/ha, applied to paddy water, visual rating after 13 to 14 days, scale 0 to 100 (0 no effect, 100 complete control)
In short: (§2)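 Compounds go straight into paddy water over 2-leaf plants in pots flooded to 3 cm. Greenhouse holding lasts 13 to 14 days. Injury is scored by eye against controls from 0 (none) to 100 (complete control).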

ducksalad = test: Test D flooded paddy test; type: in vivo, Heteranthera limosa; details: 250 g ai/ha, applied to paddy water, visual rating after 13 to 14 days, scale 0 to 100 (0 no effect, 100 complete control)
In short: as §2

rice = test: Test D flooded paddy test; type: in vivo, Oryza sativa; details: 250 g ai/ha, applied to paddy water, visual rating after 13 to 14 days, scale 0 to 100 (0 no effect, 100 complete control)
In short: as §2

sedge, umbrella = test: Test D flooded paddy test; type: in vivo, Cyperus difformis; details: 250 g ai/ha, applied to paddy water, visual rating after 13 to 14 days, scale 0 to 100 (0 no effect, 100 complete control)
In short: as §2

[24] = Preemergence, 500 g ai/ha, visual rating after 10 days
[25] = 125 g ai/ha, postemergence, 0 to 100 scale, 0 no effect, 100 complete control
[26] = Postemergence, 500 g ai/ha, visual 0 to 100 scale (0 no effect, 100 complete control)
[27] = 500 g ai/ha, postemergence, 0 to 100 scale (0 no effect, 100 complete control)
[28] = Postemergence, 125 g ai/ha, 0 to 100 scale (0 no effect, 100 complete control)

CC(C)n1cnc(-c2cccc(C(=O)N3C[C@H](C)Oc4c(Cl)cccc43)c2)n1 [Compound 172]
0: Plant response rating, Barnyardgrass (barnyardgrass [1]; [24]) | Barnyardgrass plant response rating (barnyardgrass [1]; Test C, 125 g ai/ha) | Plant response rating, Blackgrass (blackgrass [2]; [24]) | Blackgrass plant response rating (blackgrass [2]; Test C, 125 g ai/ha) | Plant response rating, Corn (corn [3]; [24]) | Corn plant response rating (corn [3]; Test C, 125 g ai/ha) | Plant response rating, Foxtail, Green (green foxtail [4]; [24]) | Foxtail, Green plant response rating (green foxtail [4]; Test C, 125 g ai/ha) | Plant response rating, Kochia (kochia [5]; [24]) | Kochia plant response rating (kochia [5]; Test C, 125 g ai/ha) | Plant response rating, Oat, Wild (oat, wild [6]; [24]) | Oat, Wild plant response rating (oat, wild [6]; Test C, 125 g ai/ha) | Plant response rating, Pigweed, Palmer (pigweed, palmer [7]; [24]) | Pigweed, Palmer plant response rating (pigweed, palmer [7]; Test C, 125 g ai/ha) | Plant response rating, Ragweed (ragweed [8]; [24]) | Ragweed plant response rating (ragweed [8]; Test C, 125 g ai/ha) | Ryegrass, Italian plant response rating (ryegrass, Italian [9]; Test C, 125 g ai/ha) | Plant response rating, Soybean (soybean [10]; [24]) | Soybean plant response rating (soybean [10]; Test C, 125 g ai/ha) | Plant response rating, Wheat (wheat [11]; [24]) | Wheat plant response rating (wheat [11]; Test C, 125 g ai/ha) | Plant response rating, Barnyardgrass (barnyardgrass [12]; [25]) | Plant response rating, Barnyardgrass (barnyardgrass [12]; [26]) | Plant response rating, Blackgrass (blackgrass [13]; [25]) | Plant response rating, Blackgrass (blackgrass [13]; [26]) | Plant response rating, Corn (corn [14]; [25]) | Plant response rating, Corn (corn [14]; [26]) | Plant response rating, Foxtail, Green (green foxtail [15]; [25]) | Plant response rating, Foxtail, Green (green foxtail [15]; [26]) | Plant response rating, Kochia (kochia [16]; [25]) | Plant response rating, Oat, Wild (oat, wild [17]; [25]) | Plant response rating, Oat, Wild (oat, wild [17]; [26]) | Plant response rating, Pigweed, Palmer (pigweed, palmer [18]; [25]) | Plant response rating, Pigweed, Palmer (pigweed, palmer [18]; [26]) | Plant response rating, Ragweed (ragweed [19]; [25]) | Plant response rating, Ragweed (ragweed [19]; [26]) | Plant response rating, Ryegrass, Italian (ryegrass, Italian [20]; [25]) | Plant response rating, Ryegrass, Italian (ryegrass, Italian [20]; [26]) | Plant response rating, Soybean (soybean [21]; [25]) | Plant response rating, Soybean (soybean [21]; [26]) | Plant response rating, Wheat (wheat [22]; [25]) | Plant response rating, Wheat (wheat [22]; [26]) | Plant response rating, Galium (galium; [25]) | Plant response rating, Galium (galium; [26]) | Plant response rating, Horseweed (horseweed; [25]) | Plant response rating, Horseweed (horseweed; [26]) | Plant response rating, Barnyardgrass (Flood) (barnyardgrass [23]) | Plant response rating, Ducksalad (Flood) (ducksalad) | Plant response rating, Rice (Flood) (rice) | Plant response rating, Sedge, Umbrella (Flood) (sedge, umbrella)
30: Plant response rating, Kochia (kochia [16]; [26])
20: Plant response rating, Ryegrass, Italian (ryegrass, Italian [9]; [24])

Cc1cccc2c1OC(C(F)(F)F)CN2C(=O)c1cccc(-n2cnc(C(C)C)n2)c1 (racemic) [Compound 301]
0: Corn plant response rating (corn [3]; 500 g ai/ha) | Corn plant response rating (corn [3]; Test C, 125 g ai/ha) | Ragweed plant response rating (ragweed [8]; Test C, 125 g ai/ha) | Plant response rating, Horseweed (horseweed; [27])
15: Plant response rating, Rice (Flood) (rice)
40: Wheat plant response rating (wheat [11]; Test C, 125 g ai/ha) | Plant response rating, Barnyardgrass (barnyardgrass [12]; [27])
85: Plant response rating, Sedge, Umbrella (Flood) (sedge, umbrella)
55: Plant response rating, Ducksalad (Flood) (ducksalad)
10: Soybean plant response rating (soybean [10]; Test C, 125 g ai/ha) | Plant response rating, Barnyardgrass (barnyardgrass [12]; [28]) | Plant response rating, Corn (corn [14]; [28]) | Plant response rating, Foxtail, Green (green foxtail [15]; [28]) | Plant response rating, Pigweed, Palmer (pigweed, palmer [18]; [28])
100: Blackgrass plant response rating (blackgrass [2]; 500 g ai/ha) | Foxtail, Green plant response rating (green foxtail [4]; 500 g ai/ha) | Foxtail, Green plant response rating (green foxtail [4]; Test C, 125 g ai/ha) | Pigweed, Palmer plant response rating (pigweed, palmer [7]; 500 g ai/ha) | Ryegrass, Italian plant response rating (ryegrass, Italian [9]; 500 g ai/ha) | Ryegrass, Italian plant response rating (ryegrass, Italian [9]; Test C, 125 g ai/ha) | Soybean plant response rating (soybean [10]; 500 g ai/ha) | Plant response rating, Blackgrass (blackgrass [13]; [27]) | Plant response rating, Soybean (soybean [21]; [27]) | Plant response rating, Soybean (soybean [21]; [28]) | Plant response rating, Galium (galium; [27]) | Plant response rating, Galium (galium; [28])
90: Barnyardgrass plant response rating (barnyardgrass [1]; 500 g ai/ha) | Blackgrass plant response rating (blackgrass [2]; Test C, 125 g ai/ha) | Kochia plant response rating (kochia [5]; 500 g ai/ha) | Oat, Wild plant response rating (oat, wild [6]; 500 g ai/ha) | Pigweed, Palmer plant response rating (pigweed, palmer [7]; Test C, 125 g ai/ha) | Wheat plant response rating (wheat [11]; 500 g ai/ha) | Plant response rating, Blackgrass (blackgrass [13]; [28])
80: Kochia plant response rating (kochia [5]; Test C, 125 g ai/ha) | Plant response rating, Corn (corn [14]; [27]) | Plant response rating, Kochia (kochia [16]; [27]) | Plant response rating, Ryegrass, Italian (ryegrass, Italian [20]; [27])
20: Plant response rating, Oat, Wild (oat, wild [17]; [28]) | Plant response rating, Wheat (wheat [22]; [28]) | Plant response rating, Horseweed (horseweed; [28]) | Plant response rating, Barnyardgrass (Flood) (barnyardgrass [23])
70: Oat, Wild plant response rating (oat, wild [6]; Test C, 125 g ai/ha) | Plant response rating, Foxtail, Green (green foxtail [15]; [27]) | Plant response rating, Ryegrass, Italian (ryegrass, Italian [20]; [28])
30: Plant response rating, Ragweed (ragweed [19]; [28])
60: Plant response rating, Pigweed, Palmer (pigweed, palmer [18]; [27]) | Plant response rating, Ragweed (ragweed [19]; [27])
50: Barnyardgrass plant response rating (barnyardgrass [1]; Test C, 125 g ai/ha) | Ragweed plant response rating (ragweed [8]; 500 g ai/ha) | Plant response rating, Kochia (kochia [16]; [28]) | Plant response rating, Oat, Wild (oat, wild [17]; [27]) | Plant response rating, Wheat (wheat [22]; [27])
